Series [1] in a line: in vivo. The following applies: nonhuman primates, iv.
For series [2], the system named is SARS-CoV-2. Conditions: read-out: in vitro SARS-CoV-2 antiviral EC50; Vero E6 cells and primary lung cultures; cited from earlier work.
The target in series [3] is T1, adenosine deaminase (Homo sapiens, UniProt P00813).
T1 sequence (P00813 1-363): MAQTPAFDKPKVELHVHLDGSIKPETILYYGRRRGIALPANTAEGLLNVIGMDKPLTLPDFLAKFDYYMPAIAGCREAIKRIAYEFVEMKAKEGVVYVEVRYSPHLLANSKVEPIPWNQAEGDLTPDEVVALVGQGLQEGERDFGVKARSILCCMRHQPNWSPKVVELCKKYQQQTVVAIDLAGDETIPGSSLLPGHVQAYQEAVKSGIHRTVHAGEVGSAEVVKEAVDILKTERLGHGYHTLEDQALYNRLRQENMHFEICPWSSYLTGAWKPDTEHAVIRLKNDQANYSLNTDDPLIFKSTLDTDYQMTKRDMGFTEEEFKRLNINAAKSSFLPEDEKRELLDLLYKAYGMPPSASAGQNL
In words: Metabolism by adenosine deaminase in vitro.

For series [4], the system named is SARS-CoV-2 WA1. Description: SARS-CoV-2 nucleoprotein ELISA in A549-hACE2-TMPRSS2 cells, WA1. The series is classed as cell-based. (An ELISA detects its analyte on a solid surface through an enzyme-linked reagent.)
The nature of series [5]: in vitro. Conditions: human, microsomes.
For series [6] the following is noted: cited from earlier work.
The test system of series [7] is SARS-CoV-2. The following applies: cited from earlier work.
For series [8] the following is noted: read-out: mean Cmax of plasma 1; AGM, 1 iv 10 mg/kg day 1 dose; cited from earlier work.
For series [9], the system named is SARS-CoV-2-Nluc. In words: in vitro. The following applies: human.
For series [10] the following is noted: cited from earlier work. This is another data set of the same source.
Series [11] is classed as physicochemical. The following applies: 24 h, 50 μg/mL.
Series [12] is classed as in vitro ADME. The following applies: 2 μM, pH 7.4.
Series [13] is classed as in vitro ADME. The following applies: 2 μM, pH 7.4. The source holds these as a separate data set.
Series [14] is classed as in vitro ADME. Conditions: 2 μM, pH 7.4. The source holds these as a separate data set.
The format of series [15] is in vitro ADME. The following applies: 2 μM, pH 7.4. The source holds these as a separate data set.
The format of series [16] is in vitro ADME. Conditions: 2 μM, pH 7.4. This is another data set of the same source.
Series [17] is classed as in vitro ADME. Conditions: 2 μM, pH 7.4. This is another data set of the same source.
The format of series [18] is in vitro ADME. The following applies: 2 μM, pH 7.4. The source holds these as a separate data set.
The format of series [19] is in vitro ADME. The following applies: 2 μM, pH 7.4. This is another data set of the same source.
For series [20], the system named is three human carboxyesterases. Description: in vitro. The series is classed as in vitro ADME. Conditions: pH 7.4.
The subject of series [21] is SARS-CoV-2. In words: AGM SARS-CoV-2 antiviral efficacy study.
Series [22] can be described thus: In vivo pharmacokinetics, rat. The following applies: po, 6 mg/kg.
Series [23] is described as follows: in vitro. The series is classed as in vitro ADME. Conditions: human, Caco-2, Caco-2 efflux ratio. For orientation: Caco-2 cells form a polarised layer with tight junctions and transporters.
In series [24] the test system is Caco-2 cells. In words: in vitro. Type of series: in vitro ADME. Conditions: Caco-2.
The conditions of series [25]: in vivo.
The nature of series [26]: Thermodynamic solubility in pH 7 buffered solution. The series is classed as physicochemical.
[27] abbreviates: Severe acute respiratory syndrome coronavirus 2, A549-hACE2-TMPRSS2, read-out: EC50 ± SD, WA1 (n = 2), reference run above Omicron BA.2.12.1, BA.4, BA.5.

Structures are written as SMILES. Where two headings read alike, the source gives them in different places. Some results are limits rather than exact numbers.

Usually half-life stands for the time in which the quantity being followed falls by half. As usually defined, the EC50 is the midpoint of the concentration-response curve. Take `N#C[C@@]1(c2ccc3c(N)ncnn23)O[C@H](CO)[C@@H](O)[C@H]1O` [compound 2, GS-441524]: the half-life in [1] is 2.6 to 2.7 h; in series [5], more than 8 h. Further, the figures for the EC50 in [2] and in series [4] (setting [27]) were 1000 to 2000 nM and 7360 ± 3460 nM, respectively. Also, the “metabolism by adenosine deaminase” value in series [3] was “weak substrates or inhibitors”.
What is called Cmax is the maximum level reached in the sampled fluid or tissue. Turning to `CCC(CC)COC(=O)[C@H](C)N[P@](=O)(OC[C@H]1O[C@@](C#N)(c2ccc3c(N)ncnn23)[C@H](O)[C@@H]1O)Oc1ccccc1` [compound 1, Remdesivir], the half-life in series [6] (NHPs) was 0.4 to 0.8 h. The “oral bioavailability of the intact prodrug” value in [6] (nonhuman primates) was less than 1%. In addition, the reduction in hospitalizations in series [7] (high-risk nonhospitalized patients (PINETREE), 3-day iv) is recorded as 87%. For the same compound, the “effectiveness in reducing hospitalization” value in [7] (outpatient high-risk patients, 5-day oral Paxlovid, 3-day iv 1) was not below 87%. In addition, in [7] (patients hospitalized with COVID-19 (ACTT-1), iv), the “shortening of hospitalization duration” value is 5 days. In series [8], the maximum concentration (Cmax) is 12.6 µM. The selectivity ratio in [9] was not below 300. For the same compound, in series [10] (100 mg maintenance dose in humans), the “AUC0–24h of 1” value was 2.6 µM·h. The 50% effective concentration (EC50) in series [4] (setting [27]) amounted to 160 ± 0.6 nM. Besides, the “fold change ± SD from WA1” value is recorded as 1.0 in series [4] (WA1 (n = 2), reference run above Omicron BA.2); 1.0 in series [4] (WA1 (n = 2), reference run above Omicron BA.2.12.1, BA.4, BA.5); 1.0 in series [4] (WA1 (n = 2), reference run above Omicron BA.2.75); 1.0 in series [4] (WA1 (n = 2), reference run above Omicron BA.4.6, BF.5); 1.0 in series [4] (WA1 (n = 2), reference run above Omicron XBB, BQ.1.1); 1.0 in series [4] (WA1 (n = 3), reference run above Delta). For the same compound, the “fold change ± SD from WA1” value in [4] (WA1 (n = 7), reference run above Omicron BA.1) came out at 1.0.
Take `CC(C)C(=O)OC[C@H]1O[C@@](C#N)(c2ccc3c(N)ncnn23)[C@H](OC(=O)C(C)C)[C@@H]1OC(=O)C(C)C` [compound 6]: in series [11], the “solution stability, pH 2” value is not below 96% and the “solution stability, pH 7” value is not below 98%. Also, the “GI S9 stability, human” value in series [12] was <2/<2/<2/<2 min. In addition, the “GI S9 stability, rat” value in [13] was <2/<2/<2/<2 min. Moreover, in series [14], the “GI S9 stability, cynomolgus monkey” value is given as <2/<2/<2/<2 min. The “GI S9 stability, dog” value in [15] is <2/<2/<2/<2 min.
As to `CC(=O)OC[C@H]1O[C@@](C#N)(c2ccc3c(N)ncnn23)[C@H](OC(C)=O)[C@@H]1OC(C)=O` [compound 7], the “liver S9 stability, cynomolgus monkey” value in series [16] is <2/<2/<2/<2 min. For the same compound, the “liver S9 stability, rat” value in series [17] was <2/<2/<2/<2 min. Further, the “liver S9 stability, dog” value in [18] is reported as <2/<2/<2/<2 min. For the same compound, the “liver S9 stability, human” value in [19] is on record as <2/<2/<2/<2 min.
What is called efflux ratio is the permeability from basolateral to apical divided by that in the opposite direction, in the common usage. For `CC(C)C(=O)OC[C@H]1O[C@@](C#N)(c2ccc3c(N)ncnn23)[C@H](O)[C@@H]1O` [compound 3, ((2R,3S,4R,5R)-5-(4-Aminopyrrolo[2,1-f][1,2,4]triazin-7-yl)-5-cyano-3,4-dihydroxytetrahydrofuran-2-yl)methyl Isobutyrate], the half-life at 2 μM in series [20] is less than 4.3 min. In series [21] (1, 2, and 6 dpi, both dose groups), the “SARS-CoV-2 infectious and RNA loads in throat swabs” value is “significant reductions”. In series [21] (60 or 120 mg/kg oral once daily, throughout infection), the “infectious viral loads in the BALF” value is on record as “statistically significant decreases”. For the same compound, the “genomic RNA loads in BALF” value in series [21] (60 or 120 mg/kg, exception 60 mg/kg at day 1 post-infection) is given as “significantly reduced at nearly all study time points assessed”. In series [21] (after day 4 post-infection, either dose group), the “infectious virus in throat and nasal swabs” value is on record as “no detectable infectious virus”. The “viral RNA levels in terminal respiratory tissues” value in [21] (study day 6, both doses) is “significant reductions of viral RNA levels in 5 out of the 6 respiratory tissues evaluated”. For the same compound, in series [11], the “solution stability, pH 2” value is not below 94% and the “solution stability, pH 7” value is given as not below 96%. Moreover, the “GI S9 stability, human” value in series [12] is reported as <2/<2/<2/<2 min. Besides, the “AUC0–24 of 3” value in [22] was “BLQ”. Also, the efflux ratio at 2 h in series [23] was less than 3. In [24], the “fold improved forward permeability over parent 2” value is ~ 10 fold. The “GI S9 stability, rat” value in [13] is <2/<2/<2/<2 min. Besides, in series [14], the “GI S9 stability, cynomolgus monkey” value is <2/<2/<2/<2 min. For the same compound, the “GI S9 stability, dog” value in [15] is <2/<2/<2/<2 min. In series [25], the “simulated human Cave” value is reported as “≈ 4.6 μM”. Besides, the “metabolism by adenosine deaminase” value in [3] was “weak substrates or inhibitors”. Further, in series [4] (setting [27]), the half-maximal effective concentration (EC50) was determined as 1570 ± 210 nM. In addition, in series [4] (Severe acute respiratory syndrome coronavirus 2, A549-hACE2-TMPRSS2, read-out: EC50 ± SD, WA1 (n = 2), reference run above Omicron BA.4.6, BF.5), the 50% effective concentration (EC50) was found to be 3960 ± 290 nM. Besides, in [26], the “fold improved pH 7 solubility over 2” value is reported as more than 10 fold and the “fold improved pH 7 solubility over 6” value is more than 100 fold.
Turning to `[N-]=[N+]=N[C@]1(CO)O[C@@H](n2ccc(N)nc2=O)[C@H](O)[C@@H]1O` [R1479], the estimated oral bioavailability in [10] (human, in vivo, po) is given as 6–18%.
Turning to `CC(=O)OC[C@H]1O[C@@](C#N)(c2ccc3c(N)ncnn23)[C@H](O)[C@@H]1O` [compound 5, ((2R,3S,4R,5R)-5-(4-Aminopyrrolo[2,1-f][1,2,4]triazin-7-yl)-5-cyano-3,4-dihydroxytetrahydrofuran-2-yl)methyl Acetate], the “GI S9 stability, rat” value in series [13] is less than 2 min.

Source of the values: article PMC11556372 (Journal of medicinal chemistry, 2023).
